Laboratory results published in paper PMC4601023, “Novel anticancer agent, SQAP, binds to focal adhesion kinase and modulates its activity” (Scientific Reports, 2015).
Values belong to the compound of their own block, whether it stands above or below them.

How the values were obtained:
[1] = tested on: TSP-1 expression in endothelial cells; design: method as in PMID 14739779; conditions: cited from earlier work
[2] = molecular target: T1, HR23B (Homo sapiens, UniProt P54727); assay: SPR analysis, immobilized GST-HR23B (GST control subtracted); assay type: binding; conditions: no kinetic analysis
T1 construct: ADRM1 and HR23B human full length proteins were purchased; purchased Abnova (Taipei, Taiwan)
Excerpt: (§1) SPR was utilized as an independent confirmation of the kinetic parameters between SQAP and the putative binding proteins. […] The recombinant proteins were then expressed in Escherichia coli and purified to homogeneity. In addition, full length, His-tagged ADRM1 and GST-tagged HR23B (GST-HR23B) were also used. The proteins were first immobilized on a CM5 sensor chip of the SPR biosensor (Biacore 3000). For GST-HR23B analysis, a GST protein was additionally immobilized and used as a control in order to eliminate possible nonspecific binding of SQAP. SQAP samples at different concentrations were then injected over the proteins immobilized on the sensor chip. As a negative control we used sulfoquynovosylpropanediol (SQP), which lacks the fatty acid moiety of SQAP (Fig. 1). […]
(§2) The binding kinetics of SCP-2, MFE-2, ADRM1, HR23B and FAK with SQAP and SQP were analyzed on a Biacore 3000 instrument (GE Healthcare, Little Chalfont, UK). […] The buffer of purified peptides was exchanged to HBS-P (150 mM NaCl, 0.005% Surfactant P20, 10 mM HEPES-NaOH pH 7.4) using a PD 10 column (GE Healthcare, Little Chalfont, UK) and the concentrations were quantified using DC protein assay kit (Bio-Rad Laboratories, Hercules, CA, USA). […] Kinetic parameters were determined by analyzing the data using BIAevaluation 4.1 software (GE Healthcare, Little Chalfont, UK).

[3] = tested on: FAK phosphorylation (Y397, Y925) in A549 cells; assay: FAK phosphorylation level in A549, Western blotting; assay type: cell-based, human; conditions: A549, fibronectin 10 μg/mL, 1 h treatment
Description: A549 cells were incubated in a serum-free medium for 48 h in 60 mm dishes (IWAKI, Tokyo, Japan). Then 10 μM SQAP, SQMG or SQP was added and incubated for 30 min followed by addition of fibronectin 10 μg/mL (Sigma, St. Louis, MI, USA) and incubation for another 30 min. FAK phosphorylation level was analyzed by Western blotting as described in the next section.
(§3) Cells were harvested and solubilized in RIPA buffer (20 mM Tris-HCl, pH 7.5, 1% Sodium deoxycholate, 150 mM NaCl, 5 mM EDTA, 1% Triton X-100, 0.1% SDS, 0.1%, 1 mM PMSF, 1 mM vanadate and 1 μg/mL leupeptin). Protein quantification was determined using the DC protein assay kit (Bio-Rad, Hercules, CA, USA). A total of 15 μg of each protein sample were separated by SDS–PAGE gels and blotted onto polyvinylidene difluoride membranes (Merck, Kenilworth, NJ, US). After blocking for 1 h with Blocking-One (Nacalai Tesque, Kyoto, Japan), proteins were detected by incubating the membranes with the primary antibody at 4 °C overnight (anti-Y397 2:2000, anti-Y925 5:2000 and anti-FAK 0.5:2000) followed by incubation with horseradish peroxidase-conjugated secondary antibodies at room temperature for 1 h (anti-mouse 0.5:2000 and anti-rabbit 0.4:2000).

[4] = molecular target: T2, ADRM1 (Homo sapiens, UniProt Q16186); assay: SPR analysis, immobilized full length His-ADRM1; assay type: binding
T2 construct: ADRM1 and HR23B human full length proteins were purchased; His-tag; purchased ATgen (Gyeonggi-do, Korea)
Excerpt: as §1, §2

[5] = molecular target: T3, FAK (910–1052) (Homo sapiens, UniProt Q05397); assay: SPR analysis, immobilized His-tagged FAK (910-1052); assay type: binding
T3 construct: For FAK (910–1052) DNA was amplified; made in house; host or cells: E. coli BL21 (DE3)
Excerpt: as §1, §2

[6] = molecular target: T4, SCP-2 (400–547) (Homo sapiens, UniProt P22307); assay: SPR analysis, immobilized His-tagged SCP-2 (400-547); assay type: binding
T4 construct: DNA encoding SCP-2 (400–547) was amplified; made in house; host or cells: E. coli Rosetta 2 (DE3) pLysS
Excerpt: as §1, §2

[7] = molecular target: T5, MFE-2 (598–736) (Homo sapiens, UniProt P51659); assay: SPR analysis, immobilized His-tagged MFE-2 (598-736); assay type: binding
T5 construct: For MFE-2 (598–736) DNA was amplified; made in house; host or cells: E. coli Rosetta 2 (DE3) pLysS
Excerpt: as §1, §2

[8] = tested on: lung and colon adenocarcinomas; design: method as in PMID 9020475, PMID 21115885; conditions: transplanted in nude mice, in combination with X-irradiation; cited from earlier work
[9] = tested on: FAK phosphorylation (Y397, Y925) in HUVEC cells; assay: FAK phosphorylation level in HUVEC, Western blotting; assay type: cell-based, human; conditions: VEGF 50 ng/mL, 1 h
Description: HUVEC cells were incubated for 20 h in serum-free medium in 60 mm dishes. SQAP, SQMG or SQP was added and incubated for 30 min followed by addition of 50 ng/mL VEGF (RD systems, Minneapolis, MN. USA) and incubation for another 30 min. FAK phosphorylation level was analyzed by Western blotting as described in the next section.
as §3

[10] = molecular target: VEGF (Homo sapiens, UniProt P15692); conditions: cited from earlier work
[11] = tested on: Akt phosphorylation at S473 in HUVEC; assay: Akt phosphorylation in HUVEC, Western blotting; assay type: cell-based, human; conditions: treated for 21 h, 10 µM
Excerpt: Furthermore, we looked at FAK signaling pathway to validate our results. Paxillin binds to FAK 919–938 residues which is a sequence contained within the region where SQAP is predicted to bind. Binding between paxillin and FAK results in paxillin phosphorylation at Y118[35][36]. Thus, we examined paxillin phosphorylation. […] Additionally, we studied Akt phosphorylation at S473 on account of FAK is a known factor in control of Akt activity. We observed that Akt phosphorylation was diminished when treated with SQAP or SQMG for 21 h (see Supplementary Fig. S3).
as §3, with “0.4:2000). […]” for “0.4:2000).”

[12] = tested on: TSP-1 gene; design: method as in PMID 22587436; conditions: diverse cell lines including A549 and HUVEC; cited from earlier work
[13] = tested on: Tie2 gene; design: method as in PMID 18380795; conditions: cited from earlier work
[14] = tested on: breast CSCs; design: method as in PMID 25187396; conditions: in combination with radiotherapy; cited from earlier work

Chain of VEGF (P15692 whole entry, species assumed): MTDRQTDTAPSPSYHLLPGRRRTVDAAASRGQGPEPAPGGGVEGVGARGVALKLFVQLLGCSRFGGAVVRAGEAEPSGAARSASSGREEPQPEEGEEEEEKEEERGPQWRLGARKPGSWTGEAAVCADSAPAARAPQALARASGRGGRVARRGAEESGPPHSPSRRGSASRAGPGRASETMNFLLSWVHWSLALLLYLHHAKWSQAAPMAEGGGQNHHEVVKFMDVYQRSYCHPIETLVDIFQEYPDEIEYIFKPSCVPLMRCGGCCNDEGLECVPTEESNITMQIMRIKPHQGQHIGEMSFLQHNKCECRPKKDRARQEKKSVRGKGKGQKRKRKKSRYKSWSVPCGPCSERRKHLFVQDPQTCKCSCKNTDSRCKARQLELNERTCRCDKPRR
T4 sequence (P22307 400-547): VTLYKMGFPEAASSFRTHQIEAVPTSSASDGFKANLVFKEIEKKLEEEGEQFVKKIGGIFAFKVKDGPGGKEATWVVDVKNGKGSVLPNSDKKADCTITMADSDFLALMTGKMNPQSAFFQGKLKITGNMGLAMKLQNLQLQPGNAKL
T3 sequence (Q05397 910-1052): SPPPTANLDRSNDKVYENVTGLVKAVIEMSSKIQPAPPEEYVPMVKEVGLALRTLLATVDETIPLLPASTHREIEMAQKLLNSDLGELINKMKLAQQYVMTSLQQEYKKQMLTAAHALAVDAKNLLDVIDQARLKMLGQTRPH
T1 sequence (P54727 whole entry): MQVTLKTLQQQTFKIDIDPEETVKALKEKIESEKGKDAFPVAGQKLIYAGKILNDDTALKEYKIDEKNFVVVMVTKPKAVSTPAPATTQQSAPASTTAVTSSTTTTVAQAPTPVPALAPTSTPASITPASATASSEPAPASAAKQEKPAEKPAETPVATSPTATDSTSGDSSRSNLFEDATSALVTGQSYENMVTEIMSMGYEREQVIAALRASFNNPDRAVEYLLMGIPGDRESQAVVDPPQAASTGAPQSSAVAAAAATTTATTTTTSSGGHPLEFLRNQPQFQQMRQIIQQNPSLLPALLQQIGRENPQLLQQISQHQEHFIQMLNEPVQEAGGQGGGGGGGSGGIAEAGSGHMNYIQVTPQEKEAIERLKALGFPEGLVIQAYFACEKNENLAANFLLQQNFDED
T2 sequence (Q16186 whole entry): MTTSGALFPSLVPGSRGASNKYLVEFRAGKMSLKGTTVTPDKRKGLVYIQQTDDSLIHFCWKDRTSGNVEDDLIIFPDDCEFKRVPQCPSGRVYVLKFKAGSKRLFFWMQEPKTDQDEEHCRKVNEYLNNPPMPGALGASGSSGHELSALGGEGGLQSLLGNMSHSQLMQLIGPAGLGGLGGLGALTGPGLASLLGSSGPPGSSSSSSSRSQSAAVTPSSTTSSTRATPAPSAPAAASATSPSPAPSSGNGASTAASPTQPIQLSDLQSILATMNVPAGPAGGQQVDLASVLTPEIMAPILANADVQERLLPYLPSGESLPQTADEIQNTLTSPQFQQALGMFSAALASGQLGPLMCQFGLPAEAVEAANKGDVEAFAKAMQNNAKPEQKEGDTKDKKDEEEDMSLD
T5 sequence (P51659 598-736): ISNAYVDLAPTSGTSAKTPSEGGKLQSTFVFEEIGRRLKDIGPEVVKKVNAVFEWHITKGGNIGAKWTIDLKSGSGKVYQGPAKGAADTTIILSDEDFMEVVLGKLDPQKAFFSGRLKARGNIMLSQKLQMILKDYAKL

Compound: O=c1cc(N2CCOCC2)oc2c(-c3ccccc3)cccc12 [LY 294002]
TSP-1 expression levels [1]: upregulated

binding to HR23B (SPR response) [2]: neither bound | binding to ADRM1 (SPR response) [4]: neither bound | binding to FAK (SPR response) [5]: neither bound | binding to SCP-2 (SPR response) [6]: neither bound | binding to MFE-2 (SPR response) [7]: neither bound
Compound: O=S(=O)(O)C[C@H]1O[C@H](OCCCO)[C@H](O)[C@@H](O)[C@@H]1O [SQP, sulfoquynovosylpropanediol, reference compound]
phosphorylation of FAK at Y397 and Y925 [3]: failed to inhibit

Compound: sulfoquinovosyl monoacylglyceride [SQMG]
tumor growth [8]: significantly inhibited | phosphorylation level of FAK at Y397 and at Y925 after VEGF stimulation [9]: can inhibit | binding to VEGF [10]: bind to VEGF | Akt phosphorylation at S473 [11]: diminished | TSP-1 gene expression [12]: upregulation | Tie2 gene expression [13]: downregulation

Compound: CS(=O)(=O)c1cccc(CNc2nc(Nc3ccc4c(c3)CCC(=O)N4)ncc2C(F)(F)F)c1 [PF573228]
formation of clumps of breast CSCs [14]: block the formation of clumps
